Results: patent US20160223562A1, “Method for Determining the Concentration of a Peptide” (JPT Peptide Technologies GmbH, priority 2010, published 2016)
Square brackets hold non-standard residues; d marks the D form. Peptide text beside a SMILES is read from it. Tyr(3-NO2) = N[C@@H](Cc1ccc(O)c([N+](=O)[O-])c1)C(=O)O

Target: T1, Trypsin (Sus scrofa, UniProt P00761)
T1 construct: purchased Promega Corporation V511
Experiment: Trypsin cleavage of N-terminal quantification tag Ac-nitroTyr-SGK- from peptides, LC-MS with UV detection at 350 nm
Type: biochemical
Details: trypsin protocol of example 9, 24 h, RT
Method: Trypsin Activation: Trypsin (20 μg, sequencing grade modified trypsin, Promega Corporation, Madison, Wis., USA, catalogue no. V511, specific activity 16.965 u/mg) was dissolved in Trypsin resuspension buffer (200 μL, Promega, catalogue no. V542A, ingredient 50 mM acetic acid) and incubated for 15 min at 37° C.
Reduction and alkylation: The peptide (approx. 0.05 mg) was dissolved in 1 M urea and 100 mM fresh ammonium hydrogen carbonate (300 μL). TCEP (Tris(2-carboxyethyl) phosphine hydrochloride, 0.2 M, 7.5 μL, final concentration 5 mM) was added and the solution incubated at 37° C. for 1 h. After addition of iodoacetamide (0.5 M, 6.0 μL, final concentration 10 mM) the solution was incubated at RT in the dark for another 30 min. Digestion: The sample was digested with activated Trypsin solution (10 μL per well, 1.0 μg, resulting enzyme/substrate ratio 1:50) over night at RT. To stop the digestion, HCl (2 M, 8 μL final concentration 50 mM) and TFA (3.2 μL, final concentration 1%, pH<2) were added. Finally, the sample was analyzed by LC-MS at 350 nm.
38 peptides carrying the N-terminal quantification-tag Ac-nitroTyr-SGK-(SEQ ID NO:32) were synthesized by SPOT synthesis (Table 3). The peptide sequences are based on two different amino acid sequences, which in each case contain 19 different amino acids N-terminally attached to lysine (the 20 naturally occurring amino acids except cysteine).
All peptides were subjected to the same trypsin cleavage protocol as described in example 9. It is apparent that the quantification tag is efficiently cleaved (>99%) in nearly all cases.

T1 sequence (P00761 9-231): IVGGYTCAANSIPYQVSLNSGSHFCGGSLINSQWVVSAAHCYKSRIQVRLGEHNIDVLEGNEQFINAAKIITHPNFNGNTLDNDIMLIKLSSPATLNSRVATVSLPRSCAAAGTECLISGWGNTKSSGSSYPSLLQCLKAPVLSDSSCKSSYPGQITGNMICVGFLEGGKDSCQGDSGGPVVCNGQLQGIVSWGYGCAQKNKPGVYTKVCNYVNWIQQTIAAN

Structure (SMILES): CC(=O)N[C@@H](Cc1ccc(O)c([N+](=O)[O-])c1)C(=O)N[C@@H](CO)C(=O)NCC(=O)N[C@@H](CCCCN)C(=O)N[C@@H](Cc1ccc(O)cc1)C(=O)N[C@H](C(=O)N[C@@H](C)C(=O)N[C@@H](CC(C)C)C(=O)N[C@@H](CO)C(=O)N[C@@H](CC(C)C)C(=O)N[C@@H](CC(=O)O)C(=O)N[C@@H](CC(=O)O)C(=O)N[C@H](C(=O)N[C@@H](CCCCN)C(=O)O)C(C)C)C(C)C [Peptide 40, Ac-nitroTyr-SGKYVALSLDDV-K-OH] (Ac-[Tyr(3-NO2)]SGKYVALSLDDVK-OH)
- Kusebauch 24 h, RT: Percent Cleavage of Tag [by UV350 - Peptide-Tag vs. Tag]: 99.1%

Structure (SMILES): CC(=O)N[C@@H](Cc1ccc(O)c([N+](=O)[O-])c1)C(=O)N[C@@H](CO)C(=O)NCC(=O)N[C@@H](CCCCN)C(=O)N[C@@H](CCCNC(=N)N)C(=O)N[C@H](C(=O)N[C@@H](C)C(=O)N[C@@H](CC(C)C)C(=O)N[C@@H](CO)C(=O)N[C@@H](CC(C)C)C(=O)N[C@@H](CC(=O)O)C(=O)N[C@@H](CC(=O)O)C(=O)N[C@H](C(=O)N[C@@H](CCCCN)C(=O)O)C(C)C)C(C)C [Peptide 35, Ac-nitroTyr-SGKRVALSLDDV-K-OH] (Ac-[Tyr(3-NO2)]SGKRVALSLDDVK-OH)
- Kusebauch 24 h, RT: Percent Cleavage of Tag [by UV350 - Peptide-Tag vs. Tag]: 100.0%

Structure (SMILES): CC(=O)N[C@@H](Cc1ccc(O)c([N+](=O)[O-])c1)C(=O)N[C@@H](CO)C(=O)NCC(=O)N[C@@H](CCCCN)C(=O)N[C@@H](CCC(N)=O)C(=O)N[C@H](C(=O)N[C@@H](C)C(=O)N[C@@H](CC(C)C)C(=O)N[C@@H](CO)C(=O)N[C@@H](CC(C)C)C(=O)N[C@@H](CC(=O)O)C(=O)N[C@@H](CC(=O)O)C(=O)N[C@H](C(=O)N[C@@H](CCCCN)C(=O)O)C(C)C)C(C)C [Peptide 34, Ac-nitroTyr-SGKQVALSLDDV-K-OH] (Ac-[Tyr(3-NO2)]SGKQVALSLDDVK-OH)
- Kusebauch 24 h, RT: Percent Cleavage of Tag [by UV350 - Peptide-Tag vs. Tag]: 100.0%

Structure (SMILES): CC(=O)N[C@@H](Cc1ccc(O)c([N+](=O)[O-])c1)C(=O)N[C@@H](CO)C(=O)NCC(=O)N[C@@H](CCCCN)C(=O)N[C@@H](CC(N)=O)C(=O)N[C@H](C(=O)N[C@@H](C)C(=O)N[C@@H](CC(C)C)C(=O)N[C@@H](CO)C(=O)N[C@@H](CC(C)C)C(=O)N[C@@H](CC(=O)O)C(=O)N[C@@H](CC(=O)O)C(=O)N[C@H](C(=O)N[C@@H](CCCCN)C(=O)O)C(C)C)C(C)C [Peptide 32, Ac-nitroTyr-SGKNVALSLDDV-K-OH] (Ac-[Tyr(3-NO2)]SGKNVALSLDDVK-OH)
- Kusebauch 24 h, RT: Percent Cleavage of Tag [by UV350 - Peptide-Tag vs. Tag]: 100.0%

Structure (SMILES): CC(=O)N[C@@H](Cc1ccc(O)c([N+](=O)[O-])c1)C(=O)N[C@@H](CO)C(=O)NCC(=O)N[C@@H](CCCCN)C(=O)N[C@@H](CCC(=O)O)C(=O)N[C@H](C(=O)N[C@@H](C)C(=O)N[C@@H](CC(C)C)C(=O)N[C@@H](CO)C(=O)N[C@@H](CC(C)C)C(=O)N[C@@H](CC(=O)O)C(=O)N[C@@H](CC(=O)O)C(=O)N[C@H](C(=O)N[C@@H](CCCCN)C(=O)O)C(C)C)C(C)C [Peptide 24, Ac-nitroTyr-SGKEVALSLDDV-K-OH] (Ac-[Tyr(3-NO2)]SGKEVALSLDDVK-OH)
- Kusebauch 24 h, RT: Percent Cleavage of Tag [by UV350 - Peptide-Tag vs. Tag]: 100.0%

Structure (SMILES): CC(=O)N[C@@H](Cc1ccc(O)c([N+](=O)[O-])c1)C(=O)N[C@@H](CO)C(=O)NCC(=O)N[C@@H](CCCCN)C(=O)N[C@H](C(=O)N[C@H](C(=O)N[C@@H](C)C(=O)N[C@@H](CC(C)C)C(=O)N[C@@H](CO)C(=O)N[C@@H](CC(C)C)C(=O)N[C@@H](CC(=O)O)C(=O)N[C@@H](CC(=O)O)C(=O)N[C@H](C(=O)N[C@@H](CCCCN)C(=O)O)C(C)C)C(C)C)[C@@H](C)O [Peptide 37, Ac-nitroTyr-SGKTVALSLDDV-K-OH] (Ac-[Tyr(3-NO2)]SGKTVALSLDDVK-OH)
- Kusebauch 24 h, RT: Percent Cleavage of Tag [by UV350 - Peptide-Tag vs. Tag]: 100.0%
